# Values quoted from earlier work, collected in patent publication US12208127B2, “Preparation and use of cannabis nano-formulation” (Apurano Pharmaceuticals GmbH, priority 2020, dated 2025).
# Where two headings read alike, the source gives them in different places.
# How the values were obtained:
# [1] = higher formation after administration
# [2] = i.v. single dose 1 mg
# [3] = some pharmacological animal experiments
structure (smiles),measurement,setting,value
"CCCCCc1cc(O)c2c(c1)OC(C)(C)[C@@H]1CCC(C)=C[C@@H]21 [dronabinol as capsule, dronabinol]",formation of 11-OH-THC compared to THC,[1],3 fold
"CCCCCc1cc(O)c2c(c1)OC(C)(C)[C@@H]1CCC(CO)=C[C@@H]21 [Example 11-OH-THC, 11-OH-THC]",time to tachycardia and psychological high,[2],3-5 minutes
same,psychotropic side effects relative to THC,[3],three to seven
"CCCCCc1cc(O)c2c(c1)OC(C)(C)[C@@H]1CCC(C)=C[C@@H]21 [THC, tetrahydrocannabinol]",average plasma clearance rate,naïve THC users,approximately 36 L/h
same,average plasma clearance rate,regular users,~60 L/h
